In the SangsterLogP compilation:

How the values were obtained:
[1] = method code SF, from DOI: 10.1002/tera.1420200312, PMID: 120615; conditions: pH 7.4

logP | logD [1] | SMILES
3.25 |  | O=C(Nc1ccccc1)c1ccccc1O
 | 3.92 | Cc1cc(O)c(C(C)C)cc1Cl
 | 4.76 | CC/C(=C(/CC)c1ccc(O)cc1)c1ccc(O)cc1
4.2 |  | O=C(O)c1cc(I)cc(I)c1O
-0.46 |  | O=C(O)c1cccnc1

More lines, now with the values behind:

SMILES | logP | logD [1]
Oc1ccc(Cl)cc1Cc1cc(Cl)ccc1O | 4.26 | 
Cc1ccccc1O |  | 1.93
CCCCC(=O)O | 1.39 | 
CCC(=O)O | 0.32 | 
CCCCCCCC(=O)O | 3.05 | 
C=CCCCCCCCCC(=O)O | 3.86 | 
